# Test results published in EP3345917A1, “ANTIPROTOZOAL COMPOUNDS” (Bacoba AG, priority 2017, dated 2018).
# Where two headings read alike, the source gives them in different places. Non-standard residues stand in square brackets, D forms with d. Residues, ends and D or L forms follow the SMILES beside them. *: point of attachment. Hexenoyl(2E,4S-Me) = CC[C@H](C)/C=C/C(=O)*; Leu(3R-OH) = CC(C)[C@@H](O)[C@H](N)C(=O)O; Gly(octyl) = CCCCCCCC[C@H](N)C(=O)O; X17 = C[C@@H](CN1CCOCC1)N*; Aib = CC(C)(N)C(=O)O; βAla = NCCC(=O)O
# Assays:
# [1] = system: Plasmodium falciparum K1 strain; test: microbe, parasite or virus in culture
# Experimental: (§1) Testing of compounds against Plasmodium falciparum (K1 strain), Trypanosoma brucei rhodesiense (STIB 900 strain), Trypanosoma cruzi trypomastigote forms (Tulahuen strain), and Leishmania donovani (strain MHOM/ET/67/L82) was performed in 96 well plates at concentrations in serial dilutions. Tests were done in triplicate. IC50 values against the parasites as well as cytotoxic effects against rat myoblast (L6-cells) were determined by serial dilution and repeated twice.
# Determination of activity against Plasmodium falciparum K1 strain was done using a modified version of the ^3H-hypoxanthine incorporation assay by Trager and Jensen (Trager W. and Jensen, J.B. Science 1976; 193:673-675). After incubation the plates were harvested using a Betaplate cell harvester (Wallac, Switzerland) onto glass-fiber filters and washed. The dried filters were inserted into plastic foils with 10 ml scintillation fluid. The radioactivity was counted with a Betaplate liquid scintillation counter (Wallac, Switzerland) as counts per minute per well at each drug concentration and compared to the untreated controls. […] IC50 values were calculated by linear interpolation. All assays were run in duplicate and repeated two times.
# [2] = system: rat myoblast (L6-cells); test: Cytotoxicity assay on L6-cells (Alamar Blue); details: read-out: Cytotox L6; Cytotoxicity against rat myoblast cells (L6)
# [3] = Cytotoxicity assay on L6-cells (Alamar Blue); details: rat, Cytotox L6, Cytotoxicity against rat myoblast cells (L6)
# [4] = system: intracellular Leishmania donovani (L.don. InMac); test: Intracellular Leishmania donovani assay (L.don. InMac); type: cell-based; details: In vitro inhibition
# Source text: Tests were done in triplicate.
# [5] = system: rat myoblast (L6-cells); test: Cytotoxicity assay on L6-cells (Alamar Blue); details: Rattus norvegicus, Myoblast, 70 h
# Experimental: as §1
# [6] = Cytotoxicity assay on L6-cells (Alamar Blue); details: rat, L6 rat myoblast cells
# Experimental: as §1
smiles,measurement,setting,value
CCN(CC)CCCC(C)Nc1ccnc2cc(Cl)ccc12 (stereo not shown) [Chloroquine],IC50,[1]; K1,50 ± 10 nM
same,IC50,"[1]; K1, read-out: P.falc NF5",6.25 nM
"CCCCCCCC[C@H](NC(=O)[C@@H]1CCCN1C(=O)/C=C/[C@@H](C)CC)C(=O)N[C@H](C(=O)NC(C)(C)C(=O)N[C@@H](CC(C)C)C(=O)N[C@@H](CC(C)C)C(=O)NC(C)(C)C(=O)NC(C)(C)C(=O)NCCC(=O)N[C@@H](C)CN1CCOCC1)[C@H](O)C(C)C [Compound 5573, (2S)-N-[(1S,2R)-2-hydroxy-3-methyl-1-[(1-methyl-1-{[(1S)-3-methyl-1-{[(1S)-3-methyl-1-{[1-methyl-1-({1-methyl-1-[(2-{[(2S)-1-(morpholin-4-yl)propan-2-yl]carbamoyl}ethyl)carbamoyl]ethyl}carbamoyl)ethyl]carbamoyl}butyl]carbamoyl}butyl]carbamoyl}ethyl)carbamoyl]butyl]-2-{[(2S)-1-[(2E,4S)-4-methylhex-2-enoyl]pyrrolidin-2-yl]formamido}decanamide] ({Hexenoyl(2E,4S-Me)}-P[Gly(octyl)][Leu(3R-OH)][Aib]LL[Aib][Aib][βAla]-X17)",IC50,[2],738 nM
same,IC50 at 70 h,[3],512 nM
same,IC50,[4],20.4 nM
COc1cc([C@@H]2c3cc4c(cc3[C@H](O)[C@H]3COC(=O)[C@H]23)OCO4)cc(OC)c1OC [Podophyllotoxin],IC50,[5],50 ± 10 nM
same,IC50 at 70 h,[6],19.3 nM
